What is called IC50 is the concentration that gives 50% inhibition.

Structures are written as SMILES.

The first experiment relates to VCaP prostate cancer cell line. Briefly: Inhibition of mibolerone-induced VCaP cell proliferation (WST-1). The settings on record: Homo sapiens, VCaP, mibolerone-induced (usually 0.1 nM), 4-5 days. Format: cell-based. Here is the method:
The IC50 value of the test compound for inhibition of mibolerone-induced VCaP cell proliferation was measured.
Cell Proliferation Assays
The ability of test compounds to inhibit prostate cancer cell growth was studied by measuring inhibition of cell proliferation using androgen-sensitive VCaP prostate cancer cell line. […] Cell proliferation was measured using WST-1 Cell Proliferation Assay (Roche).
Compound `C[C@H](Cn1ccc(-c2ccc(C#N)c(Cl)c2)n1)NC(=O)c1csc(N2CCOCC2)n1` [Example 132, (R)—N-(1-(3-(3-chloro-4-cyanophenyl)-1H-pyrazol-1-yl)propan-2-yl)-2-morpholinothiazole-4-carboxamide] returned an IC50 of 210 nM. This lies in the sub-micromolar range.

`Cc1cc(-c2ccn(CCNC(=O)c3cc(-c4cccnc4)n[nH]3)n2)ccc1C#N` [Example 53, N-(2-(3-(4-cyano-3-methylphenyl)-1H-pyrazol-1-yl)ethyl)-3-(pyridin-3-yl)-1H-pyrazole-5-carboxamide] displayed an IC50 of 500 nM.

The compound `CCc1noc(C(=O)N[C@@H](C)Cn2ccc(-c3ccc(C#N)c(Cl)c3)n2)n1` [Example 91, (S)—N-(1-(3-(3-chloro-4-cyanophenyl)-1H-pyrazol-1-yl)propan-2-yl)-3-ethyl-1,2,4-oxadiazole-5-carboxamide] showed an IC50 of 330 nM.

The compound `C[C@@H](Cn1ccc(-c2ccc(C#N)c(Cl)c2)n1)NC(=O)c1csc(-c2cn[nH]c2)n1` [Example 206, (S)—N-(1-(3-(3-chloro-4-cyanophenyl)-1H-pyrazol-1-yl)propan-2-yl)-2-(1H-pyrazol-4-yl)thiazole-4-carboxamide] registered an IC50 of 490 nM.

The compound `N#Cc1ccc(-c2ccn(CCNC(=O)c3cc(-c4cccnc4)n[nH]3)n2)cc1C#N` [Example 52, N-(2-(3-(3,4-dicyanophenyl)-1H-pyrazol-1-yl)ethyl)-3-(pyridin-3-yl)-1H-pyrazole-5-carboxamide] registered an IC50 of 450 nM.

`Cc1c(-c2ccn(C[C@H](C)NC(=O)c3csc(C(C)O)n3)n2)ccc(C#N)c1Cl` (stereo partly drawn) [Example 186, N—((S)-1-(3-(3-chloro-4-cyano-2-methylphenyl)-1H-pyrazol-1-yl)propan-2-yl)-2-(1-hydroxyethyl)thiazole-4-carboxamide] displayed an IC50 of 310 nM.

`C[C@@H](Cn1ccc(-c2ccc(C#N)c(Cl)c2)n1)NC(=O)c1[nH]nc2c1COCC2` [Example 338, (S)—N-(1-(3-(3-chloro-4-cyanophenyl)-1H-pyrazol-1-yl)propan-2-yl)-2,4,6,7-tetrahydropyrano [4,3-c]pyrazole-3-carboxamide] had a half-inhibitory concentration (IC50) of 340 nM. This IC50 and that of the compound before are within 1.5-fold of each other.

The compound `O=C(NCCc1ccc(-c2ccc(Cl)c(Cl)c2)o1)c1cc(C(=O)N2CCOCC2)n[nH]1` [Example 8, N-(2-(5-(3,4-dichlorophenyl)furan-2-yl)ethyl)-3-(morpholine-4-carbonyl)-1H-pyrazole-5-carboxamide] registered an IC50 of 1600 nM.

In the case of `Cc1nc(-c2cc(C(=O)N[C@@H](C)Cn3ccc(-c4ccc(C#N)c(Cl)c4)n3)n[nH]2)cs1` [Example 94, (S)—N-(1-(3-(3-chloro-4-cyanophenyl)-1H-pyrazol-1-yl)propan-2-yl)-5-(2-methylthiazol-4-yl)-1H-pyrazole-3-carboxamide], 790 nM corresponded to half-maximal inhibition (IC50).

`CC(O)c1cc(C(=O)N[C@@H](C)Cn2ccc(-c3ccc(C#N)c(Cl)c3)n2)no1` (stereo partly drawn) [Example 124, N—((S)-1-(3-(3-chloro-4-cyanophenyl)-1H-pyrazol-1-yl)propan-2-yl)-5-(1-hydroxyethyl)isoxazole-3-carboxamide]: the 50% inhibitory concentration (IC50) worked out at 430 nM.

`C[C@H](CNC(=O)c1csc(CC#N)n1)n1ccc(-c2cc(F)c(C#N)c(F)c2)n1` [Example 222, (R)—N-(2-(3-(4-cyano-3,5-difluorophenyl)-1H-pyrazol-1-yl)propyl)-2-(cyanomethyl)thiazole-4-carboxamide] returned an IC50 of 250 nM.

`Cc1cc(-c2ccn(C[C@H](C)NC(=O)c3cc(-c4ccco4)n[nH]3)n2)ccc1C#N` [Example 32, (S)—N-(1-(3-(4-cyano-3-methylphenyl)-1H-pyrazol-1-yl)propan-2-yl)-3-(furan-2-yl)-1H-pyrazole-5-carboxamide]: half-maximal inhibition (IC50) required 560 nM.

Consider `Cc1nc(C(=O)N[C@@H](C)Cn2ccc(-c3cc(F)c(C#N)c(Cl)c3)n2)c[nH]1` [Example 249, (S)—N-{1-[3-(3-Chloro-4-cyano-5-fluorophenyl)-1H-pyrazol-1-yl]propan-2-yl}-2-methyl-1H-imidazole-4-carboxamide], for which the IC50 is 320 nM.

`C[C@@H](Cn1ccc(-c2cc(F)c(C#N)c(Cl)c2)n1)NC(=O)c1cn2cccnc2n1` [Example 324, (S)—N-(1-(3-(3-chloro-4-cyano-5-fluorophenyl)-1H-pyrazol-1-yl)propan-2-yl)imidazo [1,2-a]pyrimidine-2-carboxamide] returned an IC50 of 1000 nM.

Consider `Cc1noc(C(=O)N[C@@H](C)Cn2ccc(-c3ccc(C#N)c(Cl)c3)n2)n1` [Example 103, (S)—N-(1-(3-(3-chloro-4-cyanophenyl)-1H-pyrazol-1-yl)propan-2-yl)-3-methyl-1,2,4-oxadiazole-5-carboxamide], for which 230 nM corresponded to half-maximal inhibition (IC50).

Staying with this experiment, now noted: mibolerone-induced (usually 0.1 nM), 4-5 days.
Take `Cc1nc(C(=O)N[C@@H](C)Cn2ccc(-c3ccc(C#N)c(Cl)c3)n2)c[nH]1` [Example 248, (S)—N-{1-[3-(3-Chloro-4-cyanophenyl)-1H-pyrazol-1-yl]propan-2-yl}-2-methyl-H-imidazole-4-carboxamide]: the IC50 worked out at 490 nM.

The record behind these values is patent US11046713B2, “Androgen receptor modulating compounds” (ORION CORPORATION, priority 2009, dated 2021).
